Source: patent publication US20250099486A1, “WOUND HEALING MEDICAMENT” (The University of Sheffield, priority 2017, published 2025)

What was measured:
[1] = test system: full-thickness wounds (20 mm); assay: Full-thickness excisional rat wound model; type: in vivo, male Sprague-Dawley (SD) rats
Protocol: For in vivo experiments, 20 mm diameter and 1.2 mm thickness circles of hydrogels were prepared. These samples were sterilized using ethanol (70%) solution, air dried and equilibrated in PBS briefly before placing on the wound. For animal trials, male Sprague-Dawley (SD) rats weighing 140-170 g were used in the study. The animals had free access to food and water and were kept in the animal house facility of the Centre of Excellence in Molecular Biology (CEMB), Lahore. All animals were treated according to procedures approved by the Institutional Animal Ethics Committee at CEMB, Lahore, Pakistan. Animals were anesthetized with ketamine (100 mg/kg body weight) and xylazine (10 mg/kg body weight) and then the fur from the dorsal side was removed with a hair trimmer (Dingling professional hair clipper, RF-608, China). The backs of the rats were completely shaved for adhesive tape fixation and dressing. After shaving, the backs were cleaned with ethanol and then they were transferred onto a clean sterilized table and three circular shaped wounds were created by removing skin at three marked areas with the help of surgical scissors (Noorani Surgical Medical Supplies, Pakistan). Immediately followed the excision process, one of these wounds was covered with sterilized, 2-deoxy-D-ribose-loaded (using 70% ethanol) membrane circles and the other was covered with the same material membranes but without any 2-deoxy-D-ribose. Both the implanted membranes were sutured in position using sterile braided silk sutures (Mersilk, diameter 220 microns). The scaffolds were covered with adhesive plaster (Mepore, Sweden), further dressed with cotton gauze and finally secured with white surgical adhesive tape (Nitto, Japan) to prevent damage from self-grooming. One of these wounds was kept open and covered with dressing only (Mepore, Sweden) to serve as a negative control.
Surgical dressings were removed after three days of membrane implantation. On days 0, 3, 9, 11, 14 and 17 post-wounding, the wounds were measured and photographed. The wound areas were quantified using Image j software. By the end of experiments, on day 17, rats were euthanized with an overdose of anaesthesia and tissue sections from Implantation sites of normal, sham, control and 2-deoxy-D-ribose-loaded scaffold treated groups were removed. The samples were fixed in 3.7% paraformaldehyde (Sigma-Aldrich, USA) solution for 24 hours at room temperature. They were dehydrated using various concentrations of ethanol and water from 70% to 100% and paraffin blocks were made.
Sections of 6 μm thick were cut from the paraffin embedded samples with a microtome (Leica TP 1020 Automatic Tissue Processor) and placed on Superfrost® plus slides (Menzel-Gläser, Denmark). Conventional Haematoxylin and Eosin (H&E) staining and Gouldner's trichrome staining was performed (Yar et al., International Journal of Polymeric Materials and Polymeric Biomaterials. 2016) before mounting in DPX mounting medium (Fisher Scientific) with a coverslip.
For immunohistochemistry, 6 μm sections were processed with a mouse/rabbit specific HRP/DAB (ABC) Detection IHC Kit (Abcam). After rehydration, antigen retrieval and protein blocking steps, the sections were incubated with 3 different monoclonal antibodies (rabbit anti-CD34 (Abcam) 1:1000, mouse anti-CD80 (Santa Cruz) 1:100 and mouse anti-CD163 (AbD Serotec) 1:300) for 2 hours diluted in 1% BSA (Sigma-Aldrich). This was followed by 10 min incubation with a secondary biotinylated goat anti-polyvalent antibody (Abcam Detection IHC Kit). After incubation with an avidin and biotinylated horseradish peroxidase, the target proteins were visualized by incubation in peroxidase substrate and DAB chromogen (Abcam Detection IHC Kit). Samples were then counterstained with haematoxylin, dehydrated, and mounted as per H&E protocol. Controls consisted of samples incubated without primary and secondary antibodies, or incubated only with secondary antibodies. […]

CAM = assay: Ex-ovo CAM assay, implantation of E2 and 2dDR releasing PHBV scaffolds; type: in vivo, chicken (Gallus domesticus); settings: for mean vessel count: control 23.1 (±1.24)
Protocol: All CAM experiments were carried out according to the Home Office, UK guidelines. Fertilised chicken eggs (Gallus domesticus) were purchased from Henry Stewart & Co. (MedEggs, Norwich, UK). The eggs were carefully wiped with 20% industrial methylated spirit (IMS) solution using hand paper towels in order to remove dirt and feathers from the shell. The eggs were then incubated at 37.5° C. until embryonic development day (EDD) 3, lying horizontally in an humidified egg incubator (RCOM King SURO, P&T Poultry, Powys, Wales).
On EDD3, the upper surface of the eggs were marked with a felt pen. The eggs were held horizontally (with the marked surface on top) and cracked on the edge of a 1000 ml glass beaker and kept close to the bottom surface of petri dishes. The embryos were then transferred gently into sterile petri dishes and kept in a humidified incubator (Binder, Tuttlingen, Germany) at 38° C.
Scaffolds were cut into 5.5 mm diameter circles using a laser cutting machine (Epilog Laser Cutter, Clevedon, UK) and sterilised under UV light for 1 hour prior to implantation. Two circular scaffolds were placed on CAM at EDD8. Images of the scaffolds were acquired using a digital microscope at EDD 12 and EDD14. Microinjection of rhodamine labelled lectin into the circulation was performed, CAMs were removed and fixed in 3.7% formaldehyde solution. Embryos were then sacrificed at the end of EDD14. Angiogenesis was quantified by counting all blood vessels that converged towards the graft.
Haematoxylin and Eosin (H&E) staining was performed on cell impregnated scaffolds by modifiying a standard protocol. Briefly, fixed samples were embedded in optimal cutting temperature OCT and frozen in liquid nitrogen for 3 minutes. Sections were cut 8-10 μm thick using a cryostat (Leica Biosystems Nussloch, Germany) at −20° C. Sections were then stained with haematoxylin for 90 seconds and eosin for 5 minutes respectively. Finally H&E images were acquired under a light microscope (Motic DM-B1, Xiamen, China). The total number of blood vessels adjacent to the scaffolds were quantified by counting blood vessels in H&E sections [A. Minajeva, M. Kase, M. Saretok, A. Adamson-Raieste, S. Kase, K. Niinepuu, M Vardja, T. Asser, J. Jaal, Impact of Blood Vessel Quantity and Vascular Expression of CD133 and ICAM-1 on Survival of Glioblastoma Patients, Neurosci J. 2017 (2017) 8 pages] Briefly, all discernible blood vessels adjacent to the scaffolds were counted by two independent researchers using two independent microscopes at 10× magnification from the total of six different slides for each group and six different area of interest from each slide.

[2] = 17 days, loaded CS/collagen scaffold

O=CC[C@H](O)[C@H](O)CO [2-deoxy-D-ribose]
epithelium and hair follicles (Goldner's trichrome) [1, 2]: epithelium and hair follicles already formed | wound healing by histology (H&E) [1, 2]: essentially complete | vascularisation (staining for CD34 positive cells) ([1]; added to chitosan/collagen hydrogel): increase in vascularisation | attachment of scaffold to the surrounding tissues ([1]; day 3, loaded CS/collagen scaffold): very much attached to the surrounding tissues | wound area ([1]; day 9, loaded CS/collagen hydrogel): around 50% | wound area healed ([1]; day 11, loaded CS/collagen hydrogel): more than 50% | wound closure ([1]; day 17, loaded CS/collagen hydrogel): completely closed | wound healing ([1]; loaded in CS/collagen hydrogel): accelerated | mean vessel count (CAM; 250 mg 2dDR loaded PHBV scaffolds): 48.6 (±1.02) | mean vessel count (CAM; 500 mg 2dDR loaded PHBV scaffolds): 37.1 (±1.37) | mean number of blood vessels adjacent to the scaffolds (H&E sections) (CAM; all concentrations, compared with controls and CAM only groups): significantly increased | number of discernible blood vessels growing towards the scaffolds in comparison with plain PHBV scaffolds (CAM; all groups of releasing PHBV scaffolds): at least doubled
